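Method: 48-hour compound exposure of cells in 96-well plates, five concentrations, linear interpolation of endpoints. GI50: concentration for 50% inhibition of growth. TGI: concentration producing complete growth inhibition.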

One assay deals with MALME-3M melanoma. As to the kind of experiment: NCI tumour cell line growth inhibition, 48 h.
As to `COc1cc2c3c(n(CCCOC(=O)C(F)(F)F)c(=O)c2cc1OC)-c1cc2c(cc1C3=O)OCO2`, the GI50 was 0.159 µM and the TGI was above 100 µM.

For `N=C(N)c1ccc2nc(-c3cc(CC(=O)N[C@@H](CC(=O)O)C(=O)O)cc(-c4cc(S(N)(=O)=O)ccc4O)c3O)[nH]c2c1`, the GI50 is above 100 µM and the TGI was above 100 µM.

For `O[C@H](c1cc(C(F)(F)F)nc2c(C(F)(F)F)cccc12)[C@@H]1CCCCN1`, the GI50 was 0.875 µM and the TGI is 5.73 µM.

`CCCOc1ccc2sc(NC(=O)OC)nc2c1`: the GI50 was 3.81 µM and the TGI was above 100 µM.

`O=C(O)c1ccc(OCc2ccccc2)c(Cl)c1` registered a TGI above 100 µM.

`OCCCNc1nccc(-c2c(-c3ccc(F)cc3)nn3cc(C(F)(F)F)ccc23)n1`: the GI50 was 14.8 µM and the TGI was above 25 µM.

Consider `COc1cc(C=O)c(-c2cc(OC)c(OC)cc2C=O)cc1OC`, for which the TGI is above 100 µM.

Consider `O=S(=O)(Nc1ccc(F)cc1F)c1ccc(-c2cnc(C3CC3)o2)cc1`, for which the GI50 was 0.615 µM and the TGI was found to be 34.2 µM.

In the case of `O=C(CSC1CCc2ccccc21)N/N=C/c1ccccc1O` (centres undefined), the GI50 is 6.4 µM and the TGI was 42.3 µM.

Consider `N#CC(C(=O)C(=O)Nc1ccc(Cl)cc1)c1ccccc1` (centres undefined), for which the TGI is above 100 µM.

With `COc1cc(C(=O)N2CCN(c3ncccn3)CC2)c(N)cc1OCc1ccccc1`, the GI50 is above 100 µM and the TGI was above 100 µM.

Compound `COC(=O)/C=C1\CCC(C)O1` (centres undefined) came in with a TGI above 100 µM.

For `C=C1C(=O)OC2CC(C)C3(O)CCC(=O)C3(C)CC12` (centres undefined), the TGI is 69.5 µM.

The test system of a further assay is CCRF-CEM leukemia. Description: NCI tumour cell line growth inhibition, 48 h.
For `CC(C)N(C(=O)C12C3C4C1(I)C1C2C3(I)C41C(=O)N(C(C)C)C(C)C)C(C)C` (centres undefined), the TGI was above 61.2 µM.

With `COc1cc2c3c(n(CCCOC(=O)C(F)(F)F)c(=O)c2cc1OC)-c1cc2c(cc1C3=O)OCO2`, the GI50 was below 0.01 µM and the TGI is above 100 µM.

`N=C(N)c1ccc2nc(-c3cc(CC(=O)N[C@@H](CC(=O)O)C(=O)O)cc(-c4cc(S(N)(=O)=O)ccc4O)c3O)[nH]c2c1`: the GI50 was above 100 µM and the TGI is above 100 µM.

Consider `O[C@H](c1cc(C(F)(F)F)nc2c(C(F)(F)F)cccc12)[C@@H]1CCCCN1`, for which the GI50 is 8.52 µM and the TGI was 40.7 µM.

Take `CCCOc1ccc2sc(NC(=O)OC)nc2c1`: the GI50 was 2.07 µM and the TGI is above 28.4 µM.

Compound `O=C(O)c1ccc(OCc2ccccc2)c(Cl)c1` showed a TGI above 100 µM.

Turning to `OCCCNc1nccc(-c2c(-c3ccc(F)cc3)nn3cc(C(F)(F)F)ccc23)n1`, the GI50 is 11.4 µM and the TGI was above 25 µM.

As for `COc1cc(C=O)c(-c2cc(OC)c(OC)cc2C=O)cc1OC`, the TGI is above 100 µM.

Regarding `O=S(=O)(Nc1ccc(F)cc1F)c1ccc(-c2cnc(C3CC3)o2)cc1`, the GI50 is 0.856 µM and the TGI is above 100 µM.

On to `O=C(CSC1CCc2ccccc21)N/N=C/c1ccccc1O` (centres undefined), for which the GI50 is 1.64 µM and the TGI was found to be 45.4 µM.

The compound `N#CC(C(=O)C(=O)Nc1ccc(Cl)cc1)c1ccccc1` (centres undefined) gave a TGI above 100 µM.

As for `COc1cc(C(=O)N2CCN(c3ncccn3)CC2)c(N)cc1OCc1ccccc1`, the GI50 is above 100 µM and the TGI is above 100 µM.

Take `COC(=O)/C=C1\CCC(C)O1` (centres undefined): the TGI is above 100 µM.

`C=C1C(=O)OC2CC(C)C3(O)CCC(=O)C3(C)CC12` (centres undefined) showed a TGI above 100 µM.

Another assay has as its system LOX IMVI melanoma. Description: NCI tumour cell line growth inhibition, 48 h.
`CC(C)N(C(=O)C12C3C4C1(I)C1C2C3(I)C41C(=O)N(C(C)C)C(C)C)C(C)C` (centres undefined) returned a TGI above 60.5 µM.

On to `COc1cc2c3c(n(CCCOC(=O)C(F)(F)F)c(=O)c2cc1OC)-c1cc2c(cc1C3=O)OCO2`, for which the GI50 was below 0.01 µM and the TGI was found to be 0.0371 µM.

Consider `N=C(N)c1ccc2nc(-c3cc(CC(=O)N[C@@H](CC(=O)O)C(=O)O)cc(-c4cc(S(N)(=O)=O)ccc4O)c3O)[nH]c2c1`, for which the GI50 is above 100 µM and the TGI is above 100 µM.

Turning to `O[C@H](c1cc(C(F)(F)F)nc2c(C(F)(F)F)cccc12)[C@@H]1CCCCN1`, the GI50 is 1.51 µM and the TGI was 2.99 µM.

Take `CCCOc1ccc2sc(NC(=O)OC)nc2c1`: the GI50 is 5.66 µM and the TGI is above 100 µM.

The compound `O=C(O)c1ccc(OCc2ccccc2)c(Cl)c1` registered a TGI above 100 µM.

Take `OCCCNc1nccc(-c2c(-c3ccc(F)cc3)nn3cc(C(F)(F)F)ccc23)n1`: the GI50 was 15.3 µM and the TGI was above 25 µM.

`COc1cc(C=O)c(-c2cc(OC)c(OC)cc2C=O)cc1OC`: the TGI turned out to be 66 µM.

`O=S(=O)(Nc1ccc(F)cc1F)c1ccc(-c2cnc(C3CC3)o2)cc1`: the GI50 is 0.588 µM and the TGI worked out at 22 µM.

For `O=C(CSC1CCc2ccccc21)N/N=C/c1ccccc1O` (centres undefined), the GI50 is 2.37 µM and the TGI stood at 21.5 µM.

The compound `N#CC(C(=O)C(=O)Nc1ccc(Cl)cc1)c1ccccc1` (centres undefined) had a TGI above 100 µM.

Take `COc1cc(C(=O)N2CCN(c3ncccn3)CC2)c(N)cc1OCc1ccccc1`: the GI50 is above 100 µM and the TGI was above 100 µM.

Compound `COC(=O)/C=C1\CCC(C)O1` (centres undefined) yielded a TGI above 100 µM.

As for `C=C1C(=O)OC2CC(C)C3(O)CCC(=O)C3(C)CC12` (centres undefined), the TGI was above 100 µM.

The subject of another assay is SNB-75 CNS. As to the kind of experiment: NCI tumour cell line growth inhibition, 48 h.
Regarding `CC(C)N(C(=O)C12C3C4C1(I)C1C2C3(I)C41C(=O)N(C(C)C)C(C)C)C(C)C` (centres undefined), the TGI was above 100 µM.

As to `COc1cc2c3c(n(CCCOC(=O)C(F)(F)F)c(=O)c2cc1OC)-c1cc2c(cc1C3=O)OCO2`, the GI50 is 0.0726 µM and the TGI is above 100 µM.

Consider `N=C(N)c1ccc2nc(-c3cc(CC(=O)N[C@@H](CC(=O)O)C(=O)O)cc(-c4cc(S(N)(=O)=O)ccc4O)c3O)[nH]c2c1`, for which the GI50 was above 100 µM and the TGI is above 100 µM.

Turning to `O[C@H](c1cc(C(F)(F)F)nc2c(C(F)(F)F)cccc12)[C@@H]1CCCCN1`, the GI50 was 2.21 µM and the TGI was found to be 11.5 µM.

With `CCCOc1ccc2sc(NC(=O)OC)nc2c1`, the GI50 is 2.58 µM and the TGI is above 100 µM.

Regarding `O=C(O)c1ccc(OCc2ccccc2)c(Cl)c1`, the TGI is above 100 µM.

On to `OCCCNc1nccc(-c2c(-c3ccc(F)cc3)nn3cc(C(F)(F)F)ccc23)n1`, for which the GI50 was above 13.4 µM and the TGI was above 25 µM.

On to `COc1cc(C=O)c(-c2cc(OC)c(OC)cc2C=O)cc1OC`, for which the TGI is above 100 µM.

For the compound `O=S(=O)(Nc1ccc(F)cc1F)c1ccc(-c2cnc(C3CC3)o2)cc1`, the GI50 is 0.219 µM and the TGI was 1.25 µM.

As for `O=C(CSC1CCc2ccccc21)N/N=C/c1ccccc1O` (centres undefined), the GI50 was 5.52 µM and the TGI was above 100 µM.

On to `N#CC(C(=O)C(=O)Nc1ccc(Cl)cc1)c1ccccc1` (centres undefined), for which the TGI is above 100 µM.

`COc1cc(C(=O)N2CCN(c3ncccn3)CC2)c(N)cc1OCc1ccccc1`: the GI50 was 50.7 µM and the TGI was above 100 µM.

`COC(=O)/C=C1\CCC(C)O1` (centres undefined) came in with a TGI of 94 µM.

Compound `C=C1C(=O)OC2CC(C)C3(O)CCC(=O)C3(C)CC12` (centres undefined) yielded a TGI of 84.3 µM.

Another assay deals with HOP-92 NSCLC. Description: NCI tumour cell line growth inhibition, 48 h.
Compound `CC(C)N(C(=O)C12C3C4C1(I)C1C2C3(I)C41C(=O)N(C(C)C)C(C)C)C(C)C` (centres undefined) came in with a TGI above 100 µM.

Regarding `COc1cc2c3c(n(CCCOC(=O)C(F)(F)F)c(=O)c2cc1OC)-c1cc2c(cc1C3=O)OCO2`, the GI50 was 0.122 µM and the TGI came out at 33.4 µM.

`N=C(N)c1ccc2nc(-c3cc(CC(=O)N[C@@H](CC(=O)O)C(=O)O)cc(-c4cc(S(N)(=O)=O)ccc4O)c3O)[nH]c2c1`: the GI50 was above 100 µM and the TGI was above 100 µM.

Consider `O[C@H](c1cc(C(F)(F)F)nc2c(C(F)(F)F)cccc12)[C@@H]1CCCCN1`, for which the GI50 was 1.79 µM and the TGI was 8.43 µM.

Consider `CCCOc1ccc2sc(NC(=O)OC)nc2c1`, for which the GI50 was 3.38 µM and the TGI is above 100 µM.

Take `O=C(O)c1ccc(OCc2ccccc2)c(Cl)c1`: the TGI was above 100 µM.

For `OCCCNc1nccc(-c2c(-c3ccc(F)cc3)nn3cc(C(F)(F)F)ccc23)n1`, the GI50 was 8.1 µM and the TGI is above 25 µM.

As for `COc1cc(C=O)c(-c2cc(OC)c(OC)cc2C=O)cc1OC`, the TGI was above 100 µM.

In the case of `O=S(=O)(Nc1ccc(F)cc1F)c1ccc(-c2cnc(C3CC3)o2)cc1`, the GI50 was 0.25 µM and the TGI was 10.6 µM.

For the compound `O=C(CSC1CCc2ccccc21)N/N=C/c1ccccc1O` (centres undefined), the GI50 was 2.61 µM and the TGI turned out to be 37.5 µM.

Turning to `N#CC(C(=O)C(=O)Nc1ccc(Cl)cc1)c1ccccc1` (centres undefined), the TGI was above 100 µM.

Regarding `COc1cc(C(=O)N2CCN(c3ncccn3)CC2)c(N)cc1OCc1ccccc1`, the GI50 is above 100 µM and the TGI is above 100 µM.

`COC(=O)/C=C1\CCC(C)O1` (centres undefined) yielded a TGI above 100 µM.

On to `C=C1C(=O)OC2CC(C)C3(O)CCC(=O)C3(C)CC12` (centres undefined), for which the TGI is above 100 µM.

The values are drawn from PubChem BioAssay (NCI).
